The text below walks through data of patent US9512176B2, “Age inhibitors” (Centre National de la Recherche Scientifique, priority 2005, dated 2016).

Non-standard residues stand in square brackets, D forms with d. Residues, ends and D or L forms follow the SMILES beside them. Dap = NC[C@H](N)C(=O)O

In data set [1] the test system is ribonuclease A. The experiment in a line: Enzymatic activity of ribonuclease A after treatment with methylglyoxal and inhibitors (methylene blue RNA staining). As to conditions: ribonuclease A treated with methylglyoxal (MG) + inhibitor in equimolar quantity, 37° C.; control RNase 100, RNase + methylglyoxal 10.11%. The data set is classed as biochemical. As to the method: (§1) Ribonuclease A and lysozyme (10 mg/ml) are incubated in the presence of methylglyoxal (10 mM) or in the presence of methylglyoxal and one of the inhibitors according to the present invention in an equimolar quantity at 37° C. After 48 hours of incubation, the proteins are analyzed by polyacrylamide gel electrophoresis (8%-16% SDS PAGE gel).
The enzymatic activity of ribonuclease A after treatment with methylglyoxal and the various inhibitors according to the present invention is measured using the methylene blue RNA staining technique of Greiner-Stöffele et al. (Anal. Biochem. (1996) 240, 24).

The test system of data set [2] is EA.hy 926 cell line. Briefly: Growth of EA.hy 926 endothelial cells with MG scavengers and/or methylglyoxal (MTT). The data set is classed as cell-based, human. Conditions: for viability at 1000 µM: Homo sapiens, EA.hy 926, scavenger 1 mM + methylglyoxal 600 μM, relative to untreated control cells, MG alone 24, read-out: Cells + MG scavengers + Methylglyoxal (B); for viability at 1000 µM / Cells + MG scavengers (A): 48 hours, mean of 3 experiments; for Difference (B) − (A): Table 2, cells with scavenger + MG minus cells with scavenger alone; for Cells + MG scavengers (A): scavenger 1 mM, no methylglyoxal, number of cells relative to untreated control cells; for effect against suppression of cell growth by MG: scavenger + methylglyoxal. How it is done: The cells used for the test are from the EA.hy 926 cell line, which are endothelial cells obtained by the hybridization of human umbilical vein endothelial cells (HUVECs) with lung cancer cells (A549). The EA.hy 926 endothelial cells are incubated in Dulbecco's modified Eagle's Medium (DMEM) enriched with 10% fetal calf serum. The cells are incubated in 12-well plates. Each well initially contains 100,000 cells. Cell growth is achieved by incubating the cells in 2 ml of culture medium after adding or not adding the various potential inhibitors (1 mM) and/or methylglyoxal (600 μM) for 48 hours at 37° C. in a moist atmosphere with 5% CO2.
The number of cells is evaluated in the following way:
The cells are stained using the (4,5-dimethylthiazol-2-yl)-2,5-diphenyltetrazolium bromide (MTT) assay. MTT penetrates in the cell where it is converted into formazan. The quantity of formazan formed is proportional to the number of living cells.
The results are expressed as a relative percentage of the number of cells after treatment compared to the number of control cells without treatment [100*OD (treated cells)/OD (control cells)]. Detection is carried out by UV/visible spectrophotometry at 570 nm.
Principle: MTT (yellow) penetrates the cell and is converted into an insoluble blue compound, formazan, by cleavage of its tetrazolium rings by the mitochondrial dehydrogenase enzymes of living cells. Formazan is solubilized by isopropanol. The number of cells is proportional to the quantity of formazan formed and its absorbance.

Data set [3] deals with ribonuclease A. The experiment in a line: SDS PAGE electrophoresis of ribonuclease A incubated with methylglyoxal and inhibitor. The data set is classed as biochemical. As to the method:
as §1
The AGE inhibitors according to the present invention, namely L-DAPA-L-Leu (example 1) and L-DAPA-L-Ile (example 18), or AG (10 mM) are incubated with MG and ribonuclease A for […] at 37° C.

For data set [4] the following is noted: Battah et al. 2002; cited from earlier work.
The test system of data set [5] is Human insulin. The experiment in a line: Modification of insulin by methylglyoxal (HPLC). The data set is classed as biochemical. As to conditions: insulin 0.034 mM, methylglyoxal 3.4 mM, scavenger 4.08 mM, pH 7.45, 37° C. How it is done: FIG. 1 presents the comparative effects of dicarbonyl scavengers in the form of dihydrochloride according to the present invention and the comparison with DAPA on the modification of insulin (Ins) by methylglyoxal (MG). The percentage of insulin is indicated following incubation with methylglyoxal in the presence or absence of dicarbonyl scavengers. Insulin (0.034 mM) is incubated in vitro in a 10 mM phosphate buffer, pH 7.45 (containing 0.1 M NaCl) with methylglyoxal (3.4 mM) in the presence of dicarbonyl scavengers (4.08 mM) for 21 hours at 37° C. Insulin concentration is measured by HPLC (same conditions as in FIG. 3).
FIGS. 3 to 8 present the results obtained by HPLC for two compounds according to the present invention, L-DAPA-L-Leu (example 1) and L-DAPA-L-Val (example 23), on insulin modifications induced by methylglyoxal. It can be observed that these modifications are prevented. The HPLC conditions are as follows: C-18, Symmetry 300 (4.6×250 mm) column, injection volume 100 μl of reaction mixture; flow 1 ml/min; temperature 40° C.; solvent A: H2O+0.1% TFA; solvent B: 60/40 CH3CN/H2O+0.1% TFA; linear gradient of 50% B to 55% B in 15 minutes; detection: UV at 215 nm: PDA (chromatograms extracted at 220 nm).
Human insulin (Ins) is incubated with methylglyoxal (MG) under physiological conditions. After 24 hours, the insulin is completely modified, as illustrated in FIG. 1 (Ins+MG).
On the other hand, insulin is incubated with methylglyoxal in the presence of an equimolar quantity of the AGE inhibitors according to the present invention under physiological conditions.

A short description of data set [6]: Mutagenicity of DAPA (statement, no method given). Conditions: no test described.
Data set [7] concerns seven strains of Salmonella (six mixed strains, strain TA98). Briefly: Ames test with and without human liver S9 fractions. The data set is classed as cell-based. Also on record: key to Six mixed strains / Strain TA98: −: non-mutagenic; +: mutagenic. Conditions: for Six mixed strains / Strain TA98: mixture with methylglyoxal, 10/1/0.1 μM. As to the method: An Ames test was performed with L-DAPA-L-Leu (example 1) and L-DAPA-L-Val (example 23) alone and in combination with methylglyoxal on human liver S9 fractions and on seven strains of Salmonella.
The concentrations used in the Ames test were as follows: • L-DAPA-L-Leu alone or L-DAPA-L-Val alone: 10 μM, 1 μM and 0.1 μM. • L-DAPA-L-Leu/methylglyoxal mixture or L-DAPA-L-Val/methylglyoxal mixture: 10 μM, 1 μM and 0.1 μM. • Methylglyoxal: 10 μM.

Data set [8] deals with lysozyme. Briefly: SDS PAGE electrophoresis of lysozyme incubated with methylglyoxal and inhibitor. The data set is classed as biochemical. Conditions: lysozyme 10 mg/ml, methylglyoxal 10 mM, inhibitor equimolar, 37° C., 48 hours. As to the method: as §1
In data set [9] the test system is somatostatin-14. Briefly: Somatostatin-14 modifications induced by methylglyoxal (HPLC). The data set is classed as biochemical. As to conditions: somatostatin-14 0.03 mm, methylglyoxal 3.6 mM, compound 4.3 mM, 24 hours at 37° C. How it is done:
FIGS. 9 and 10 present the results obtained by HPLC for two compounds according to the present invention, L-DAPA-L-Leu (example 1) and L-DAPA-L-Val (example 23), on somatostatin-14 modifications induced by methylglyoxal. HPLC conditions are as follows: C-18, Symmetry 300 (4.6×250 mm) column, injection volume 100 μl of reaction mixture; flow 1 ml/min; solvent A: H2O+0.1% TFA; solvent B: 80/20 CH3CN/H2O+0.1% TFA; linear gradient: from 20% B to 60% B in 15 minutes and isocratic from 60% B for 10 minutes; ambient temperature; detection: PDA (chromatograms extracted at 215 nm).
In these figures, (a) represents the results of somatostatin-14 alone; (b) represents the results of somatostatin-14+methylglyoxal; (c) represents the results of somatostatin-14+methylglyoxal+L-DAPA-L-Val (example 23) and (d) represents the results of somatostatin-14+methylglyoxal+L-DAPA-L-Leu (example 1).

In data set [10] the test system is RNase A. Briefly: RNase A modifications induced by methylglyoxal (HPLC). The data set is classed as biochemical. Conditions: RNase A 0.08 mM, methylglyoxal 32 mM, compound 38 mM, 21 hours at 37° C. As to the method: FIGS. 11 to 13 present the results obtained by HPLC for three compounds according to the present invention, L-DAPA-L-Ile (example 18), L-DAPA-L-Val (example 23) and L-DAPA-L-Leu (example 1), on RNase A modifications induced by methylglyoxal. HPLC conditions are as follows: C-18, Symmetry 300 (4.6×250 mm) column, injection volume 100 μl of reaction mixture diluted to 1/10; flow 1 ml/min; temperature 40° C.; solvent A: H2O+0.1% TFA; solvent B: 60/40 CH3CN/H2O+0.1% TFA; linear gradient of 20% B to 80% B in 20 minutes; detection: UV at 215 nm: PDA (chromatograms extracted at 215 nm).

Take `N=C(N)NN` [Aminoguanidine, aminoguanidine, reference compound]: the “Enzymatic activity (%)” value in [1] worked out at 70.52%. In data set [2], the viability at 1000 µM came to 92%, the “Difference (B) − (A)” value is −5, the “Cells + MG scavengers (A)” value is on record as 97% and the “effect against suppression of cell growth by MG” value was “suppresses this process in a spectacular manner”. The “protecting effect against structural modifications of ribonuclease A induced by MG, compared with the inhibitors of the invention” value in data set [3] (10 mM, 40 hours at 37° C.) is on record as “much less effective”. Besides, the “better scavenger of methylglyoxal compared with metformin (factor)” value in data set [4] was 450.

Turning to `NCC(N)C(=O)O` [D-DAPA, 2,3-diaminopropionic acid, reference compound], the “Enzymatic activity (%)” value in data set [1] turned out to be 20.32%. Further, in data set [2], the “cell survival when incubated with MG” value is 68%, the viability at 1000 µM stood at 68%, the “Difference (B) − (A)” value is given as −15 and the “Cells + MG scavengers (A)” value is 83%. Besides, in [2] (compound alone, 1 mM), the “toxicity with respect to EA cells” value is listed as “cytotoxicity is higher”. Moreover, the “modification of insulin by methylglyoxal” value in data set [5] is “prevents the modification of insulin by MG”. Also, the “mutagenicity” value in data set [6] is “appears to be mutagenic”.

Turning to `CC(C)[C@H](NC(=O)[C@@H](N)CN)C(=O)O` [example 23, L-DAPA-L-Val.2HCl] (H-[Dap]-Val-OH), the “Enzymatic activity (%)” value in [1] turned out to be 90.77%. For the same compound, in data set [2], the “cell survival when incubated with MG” value was 93%, the viability at 1000 µM is 93%, the “Difference (B) − (A)” value was −1 and the “Cells + MG scavengers (A)” value was determined as 94%. In addition, in data set [2], the “effect against suppression of cell growth by MG” value was “same trend”. Also, the “difference between number of cells growing with compound and with MG and compound” value in data set [2] (values in brackets) is given as −3. Besides, in [7] (Human S9: No), the Six mixed strains entry was “−” and the “Strain TA98” value was “−”. Further, in data set [7] (Human S9: Yes (metabolites)), the Six mixed strains result is reported as “−” and the “Strain TA98” value is given as “−”. For the same compound, the “mutagenicity” value in data set [7] (alone or in combination with methylglyoxal, TA98, mixed strains, human liver S9 fractions) was “neither substance (L-DAPA-L-Leu or L-DAPA-L-Val) was mutagenic”. For the same compound, in data set [3] (ribonuclease A 10 mg/ml, methylglyoxal 10 mM, inhibitor equimolar, 37° C., 48 hours), the “protection from structural modifications (dimer form) caused by methylglyoxal” value is “provides protection”. In addition, the “protection from structural modifications (dimer form) caused by methylglyoxal” value in data set [8] is recorded as “provides protection”. The “modification of insulin by methylglyoxal” value in [5] is recorded as “prevented”. Also, the “somatostatin-14 modifications induced by methylglyoxal” value in data set [9] is “prevent the modifications induced by methylglyoxal”. Moreover, the “RNase A modifications induced by methylglyoxal” value in [10] is “prevent the modifications to RNase A”.
